pIC50: −log10 of the molar value.
Target: T1, neutrophil elastase (Homo sapiens, UniProt P08246)
T1 sequence (P08246 30-247 limits assumed): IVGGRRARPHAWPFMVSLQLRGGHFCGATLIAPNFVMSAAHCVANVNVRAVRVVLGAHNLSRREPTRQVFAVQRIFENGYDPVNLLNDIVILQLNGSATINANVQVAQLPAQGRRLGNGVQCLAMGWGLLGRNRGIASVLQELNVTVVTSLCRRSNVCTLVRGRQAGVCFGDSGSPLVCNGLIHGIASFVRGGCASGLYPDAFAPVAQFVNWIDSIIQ
Test: Human Neutrophil Elastase Assay
Assay type: biochemical
Set-up: purchased Calbiochem 324681
Details: substrate MeOSuc-Ala-Ala-Pro-Val-AMC, pH 7.5, room temperature
Procedure, shortened: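 Readout: AMC fluorescence (ex 380, em 460 nm) after 60 min room-temperature reaction with 250 nM MeOSuc-AAPV-AMC, following 15 min compound–enzyme preincubation. Buffer: Tris/NaCl pH 7.5, 0.01% BSA.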

Row | pIC50 | Structure (SMILES)
1 | 7.93 | N#Cc1ccc(C2C3=C(CCCC3=O)N(c3cccc(C(F)(F)F)c3)C(=O)N2CC(=O)NCc2ccc(=O)[nH]c2)cc1 (centres unmarked) [Example 36.52]
2 | 8.29 | CC(C)CS(=O)(=O)N1C(=O)N(c2cccc(C(F)(F)F)c2)C2=C(C(=O)CCC2)C1c1ccc(C#N)cc1 (centres unmarked) [Example 44.3]
3 | 8.77 | CC1(O)CCN(C(=O)CN2C(=O)N(c3cccc(C(F)(F)F)c3)C3=C(C(=O)CCC3)C2c2ccc(C#N)cc2)C1 (centres unmarked) [Example 36.25]
4 | 8.51 | CN(C(=O)CN1C(=O)N(c2cccc(C(F)(F)F)c2)C2=C(C(=O)CCC2)C1c1ccc(C#N)cc1)C1CCS(=O)(=O)C1 (centres unmarked) [Example 36.69]
5 | 8.21 | N#Cc1ccc(C2C3=C(CCCC3=O)N(c3cccc(C(F)(F)F)c3)C(=O)N2CC(=O)N2CCn3cccc3C2)cc1 (centres unmarked) [Example 36.48]
6 | 8.19 | CNC(=O)CN1C(=O)N(c2cccc(C(F)(F)F)c2)C2=C(C(=O)CCC2)C1c1ccc(C#N)cc1 (centres unmarked) [Example 36.1]
7 | 6.96 | N#Cc1ccc(C2NC(=O)N(c3cc(C(F)(F)F)ccn3)C3=C2C(=O)CCC3)cc1 (centres unmarked) [Example 13, 4-(2,5-Dioxo-1-(4-(trifluoromethyl)pyridin-2-yl)-1,2,3,4,5,6,7,8-octahydroquinazolin-4-yl)benzonitrile]
8 | 8.47 | CN(CC1CC1)C(=O)CN1C(=O)N(c2cccc(C(F)(F)F)c2)C2=C(C(=O)CCC2)C1c1ccc(C#N)cc1 (centres unmarked) [Example 36.7]
9 | 7.71 | N#Cc1ccc(C2NC(=O)N(c3ccc(F)c(C(F)(F)F)c3)C3=C2C(=O)CCC3)cc1 (centres unmarked) [Example 52.1]
10 | 8.04 | COCCOC(=O)N1C(=O)N(c2cccc(C(F)(F)F)c2)C2=C(C(=O)CCC2)C1c1ccc(C#N)cc1 (centres unmarked) [Example 41, 2-Methoxyethyl 4-(4-Cyanophenyl)-2,5-dioxo-1-(3-(trifluoromethyl)phenyl)-1,2,5,6,7,8-hexahydroquinazoline-3(4H)-carboxylate]
11 | 8.26 | CC(C)(O)CNC(=O)N1C(=O)N(c2ccnc(C(F)(F)F)c2)C2=C(C(=O)CCC2)C1c1ccc(C#N)cc1 (centres unmarked) [Example 76.4]
12 | 7.88 | N#Cc1ccc(C2C3=C(CCCC3=O)N(c3cccc(C(F)(F)F)c3)C(=O)N2CC(=O)NC2CC2)cc1 (centres unmarked) [Example 36.2]
13 | 8.01 | Cn1cc(CN2C(=O)N(c3cccc(C(F)(F)F)c3)C3=C(C(=O)CCC3)C2c2ccc(C#N)cc2)cn1 (centres unmarked) [Example 24.2]
14 | > 9.00 | CS(=O)(=O)c1cc(C#N)ccc1C1C2=C(CCCC2=O)N(c2cccc(C(F)(F)F)c2)C(=O)N1C(=O)NCCCO (centres unmarked) [Example 47.3]
15 | 8.09 | CC(C)(O)CNC(=O)CN1C(=O)N(c2cccc(C(F)(F)F)c2)C2=C(C(=O)CCC2)C1c1ccc(C#N)cc1 (centres unmarked) [Example 36.14]
16 | 8.12 | CCS(=O)(=O)c1cc(C#N)ccc1C1NC(=O)N(c2cccc(C(F)(F)F)c2)C2=C1C(=O)CCC2 (centres unmarked) [Example 54, 4-(2,5-Dioxo-1-(3-(trifluoromethyl)phenyl)-1,2,3,4,5,6,7,8-octahydroquinazolin-4-yl)-3-(ethylsulfonyl)benzonitrile]
17 | 8.44 | N#Cc1ccc(C2C3=C(CCCC3=O)N(c3cccc(C(F)(F)F)c3)C(=O)N2CC(=O)N2CCC3(CC3)C2)cc1 (centres unmarked) [Example 36.16]
18 | 8.06 | CN(CCN1CCOCC1)C(=O)CN1C(=O)N(c2cccc(C(F)(F)F)c2)C2=C(C(=O)CCC2)C1c1ccc(C#N)cc1 (centres unmarked) [Example 36.68]
19 | > 9.00 | N#CCNC(=O)N1C(=O)N(c2cccc(C(F)(F)F)c2)C2=C(C(=O)CCC2)C1c1ccc(C#N)cc1 (centres unmarked) [Example 70.2]
20 | > 9.00 | N#Cc1ccc(C2C3=C(CCCC3=O)N(c3cccc(C(F)(F)F)c3)C(=O)N2C(=O)NCC2CCOC2)cc1 (centres unmarked) [Example 39.9]
21 | 8.85 | N#Cc1ccc(C2C3=C(CCCC3=O)N(c3cccc(C(F)(F)F)c3)C(=O)N2C(=O)NCC2CC2)cc1 (centres unmarked) [Example 70.5]
22 | 7.95 | Cn1ccc(CN2C(=O)N(c3cccc(C(F)(F)F)c3)C3=C(C(=O)CCC3)C2c2ccc(C#N)cc2)n1 (centres unmarked) [Example 24.3]
23 | 8.92 | N#Cc1ccc(C2C3=C(CCCC3=O)N(c3cccc(C(F)(F)F)c3)C(=O)N2CC(=O)N2CC3CC3C2)cc1 (centres unmarked) [Example 36.6]

Row | pIC50 | Structure (SMILES)
24 | 8.68 | COC1CCN(C(=O)CN2C(=O)N(c3cccc(C(F)(F)F)c3)C3=C(C(=O)CCC3)C2c2ccc(C#N)cc2)C1 (centres unmarked) [Example 36.23]
25 | > 9.00 | CNC(=O)N1C(=O)N(c2cccc(C(F)(F)F)c2)C2=C(C(=O)CCC2)C1c1ccc(C#N)cc1C (centres unmarked) [Example 73, 4-(4-Cyano-2-methylphenyl)-N-methyl-2,5-dioxo-1-(3-(trifluoromethyl)phenyl)-1,2,5,6,7,8-hexahydroquinazoline-3(4H)-carboxamide]
26 | > 9.00 | N#Cc1ccc(C2C3=C(CCCC3=O)N(c3cccc(C(F)(F)F)c3)C(=O)N2C(=O)NCCCO)cc1 (centres unmarked) [Example 39.6]
27 | > 9.00 | CS(=O)(=O)c1ccc(CNC(=O)N2C(=O)N(c3cccc(C(F)(F)F)c3)C3=C(C(=O)CCC3)C2c2ccc(C#N)cc2)cc1 (centres unmarked) [Example 37, 4-(4-Cyanophenyl)-N-(4-(methylsulfonyl)benzyl)-2,5-dioxo-1-(3-(trifluoromethyl)-phenyl)-1,2,5,6,7,8-hexahydroquinazoline-3(4H)-carboxamide]
28 | 8.34 | N#Cc1ccc([C@@H]2C3=C(CCCC3=O)N(c3cccc(C(F)(F)F)c3)C(=O)N2CC(=O)O)cc1 [Example 32A, (R)-2-(4-(4-Cyanophenyl)-2,5-dioxo-1-(3-(trifluoromethyl)phenyl)-1,2,5,6,7,8-hexahydroquinazolin-3(4H)-yl)acetic acid]
29 | 8.62 | CS(=O)(=O)N1CCN(C(=O)CN2C(=O)N(c3cccc(C(F)(F)F)c3)C3=C(C(=O)CCC3)C2c2ccc(C#N)cc2)CC1 (centres unmarked) [Example 36.75]
30 | 7.69 | COCCCNC(=O)CN1C(=O)N(c2cccc(C(F)(F)F)c2)C2=C(C(=O)CCC2)C1c1ccc(C#N)cc1 (centres unmarked) [Example 36.13]
31 | 8.26 | N#Cc1ccc(C2C3=C(CCCC3=O)N(c3cccc(C(F)(F)F)c3)C(=O)N2CC(=O)N2CC3(CCC3)C2)cc1 (centres unmarked) [Example 36.17]
32 | 7.75 | CC(=O)NCCNC(=O)CN1C(=O)N(c2cccc(C(F)(F)F)c2)C2=C(C(=O)CCC2)C1c1ccc(C#N)cc1 (centres unmarked) [Example 36.26]
33 | 7.33 | CN1CCN(C(=O)N2C(=O)N(c3cccc(C(F)(F)F)c3)C3=C(C(=O)CCC3)C2c2ccc(C#N)cc2)CC1=O (centres unmarked) [Example 39.16]
34 | 8.51 | CN(C)C(=O)CN1C(=O)N(c2cccc(C(F)(F)F)c2)C2=C(C(=O)CCC2)C1c1ccc(C#N)cc1 (centres unmarked) [Example 34, 2-(4-(4-Cyanophenyl)-2,5-dioxo-1-(3-(trifluoromethyl)phenyl)-1,2,5,6,7,8-hexahydroquinazolin-3(4H)-yl)-N,N-dimethylacetamide]
35 | 6.67 | N#Cc1ccc(C2NC(=O)N(c3cccc(C(F)(F)F)c3)C3=C2C(=O)CC(c2ccc(C(F)(F)F)cc2)C3)cc1 (centres unmarked) [Example 7, 4-(2,5-Dioxo-1-(3-(trifluoromethyl)phenyl)-7-(4-(trifluoromethyl)phenyl)-1,2,3,4,5,6,7,8-octahydroquinazolin-4-yl)benzonitrile]
36 | 8.23 | N#Cc1ccc(C2C3=C(CCCC3=O)N(c3cccc(C(F)(F)F)c3)C(=O)N2CC(=O)NCCn2ccnc2)cc1 (centres unmarked) [Example 36.30]
37 | > 9.00 | CS(=O)(=O)CCNC(=O)N1C(=O)N(c2cccc(C(F)(F)F)c2)C2=C(C(=O)CCC2)C1c1ccc(C#N)cc1S(C)(=O)=O (centres unmarked) [Example 47.4]
38 | 7.63 | CN(C)CCN(C)C(=O)N1C(=O)N(c2cccc(C(F)(F)F)c2)C2=C(C(=O)CCC2)C1c1ccc(C#N)cc1 (centres unmarked) [Example 39.11]
39 | 8.74 | CS(=O)(=O)c1cc(C#N)ccc1[C@@H]1C2=C(CCCC2=O)N(c2cccc(C(F)(F)F)c2)C(=O)N1CC#N [Example 59, (S)-4-(3-(Cyanomethyl)-2,5-dioxo-1-(3-(trifluoromethyl)phenyl)-1,2,3,4,5,6,7,8-octahydroquinazolin-4-yl)-3-(methylsulfonyl)benzonitrile]
40 | 8.18 | COCCN(C)C(=O)CN1C(=O)N(c2cccc(C(F)(F)F)c2)C2=C(C(=O)CCC2)C1c1ccc(C#N)cc1 (centres unmarked) [Example 36.12]
41 | 9.00 | CCCNC(=O)N1C(=O)N(c2cccc(C(F)(F)F)c2)C2=C(C(=O)CCC2)C1c1ccc(C#N)cc1 (centres unmarked) [Example 39.2]
42 | 7.94 | N#Cc1ccc(C2C3=C(CCCC3=O)N(c3cccc(C(F)(F)F)c3)C(=O)N2S(=O)(=O)c2ccccc2C#N)cc1 (centres unmarked) [Example 44.11]
43 | 7.65 | N#Cc1ccc(C2C3=C(CCCC3=O)N(c3cccc(C(F)(F)F)c3)C(=O)N2S(=O)(=O)c2cccnc2)cc1 (centres unmarked) [Example 44.6]
44 | 8.29 | CCS(=O)(=O)N1C(=O)N(c2cccc(C(F)(F)F)c2)C2=C(C(=O)CCC2)C1c1ccc(C#N)cc1 (centres unmarked) [Example 44.1]
45 | 7.97 | Cn1cc(NC(=O)CN2C(=O)N(c3cccc(C(F)(F)F)c3)C3=C(C(=O)CCC3)C2c2ccc(C#N)cc2)ccc1=O (centres unmarked) [Example 36.53]

Row | Structure (SMILES) | pIC50
46 | CS(=O)(=O)c1cc(C#N)ccc1[C@@H]1C2=C(CCCC2=O)N(c2cccc(C(F)(F)F)c2)C(=O)N1C(=O)NC1CCOC1 (some centres unmarked) [Example 75.10] | > 9.00
47 | CC(C#N)NC(=O)N1C(=O)N(c2cccc(C(F)(F)F)c2)C2=C(C(=O)CCC2)[C@H]1c1ccc(C#N)cc1S(C)(=O)=O (some centres unmarked) [Example 75.4] | > 9.00
48 | CS(=O)(=O)c1cc(C#N)ccc1C1C2=C(CCCC2=O)N(c2cccc(C(F)(F)F)c2)C(=O)N1CC1CCOCC1 (centres unmarked) [Example 58.5] | 8.72
49 | CS(=O)(=O)c1cc(C#N)ccc1[C@@H]1C2=C(CCCC2=O)N(c2cccc(C(F)(F)F)c2)C(=O)N1C(=O)NC1CC1 [Example 75.2] | > 9.00
50 | CS(=O)(=O)c1cc(C#N)ccc1C1C2=C(CCCC2=O)N(c2cccc(C(F)(F)F)c2)C(=O)N1CCC1CCOCC1 (centres unmarked) [Example 58.6] | > 9.00

Source: US9115093B2, “Substituted bicyclic dihydropyrimidinones and their use as inhibitors of neutrophil elastase activity” (Boehringer Ingelheim International GmbH, priority 2013, dated 2015)
